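Growth conditions: 96-well plates. Treatment: test compound, 48 hours, 5 concentrations. Analysis: linear interpolation between bracketing concentrations; unreached endpoints set to highest concentration. Here, GI50 denotes the concentration required for 50% inhibition of growth.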 Calls of active or inactive are those of the source. Cut-off read from the data, not from the text of the source: active = GI50 up to about 1.1 µM and inactive = higher.
What was measured:
Test in all cases: NCI tumour cell line growth inhibition, 48 h
[1] = system: A498
[2] = system: ACHN
[3] = system: CAKI-1
[4] = system: CCRF-CEM
[5] = system: COLO 205
[6] = system: DMS-114
[7] = system: DMS-273
[8] = system: EKVX
[9] = system: HCT-15
[10] = system: HL-60
[11] = system: HOP-18
[12] = system: HOP-92
[13] = system: HT-29
[14] = system: IGROV-1
[15] = system: K562
[16] = system: KM-20L2
[17] = system: LOX IMVI
[18] = system: LXFL 529
[19] = system: M14
[20] = system: M19-MEL
[21] = system: MOLT-4
[22] = system: Malme-3M
[23] = system: NCI-H226
[24] = system: NCI-H23
[25] = system: NCI-H460
[26] = system: NCI-H522
[27] = system: OVCAR-3
[28] = system: OVCAR-8
[29] = system: RPMI-8226
[30] = system: RXF 631
[31] = system: SF-268
[32] = system: SF-295
[33] = system: SF-539
[34] = system: SK-MEL-28
[35] = system: SK-MEL-2
[36] = system: SK-MEL-5
[37] = system: SK-OV-3
[38] = system: SN12C
[39] = system: SNB-19
[40] = system: SNB-75
[41] = system: SNB-78
[42] = system: SW-620
[43] = system: TK-10
[44] = system: U-251
[45] = system: UACC-62
[46] = system: UO-31
[47] = system: 786-0
[48] = system: A549
[49] = system: BT-549
[50] = system: DU-145
[51] = system: HCC 2998
[52] = system: HCT-116
[53] = system: HOP-62
[54] = system: Hs-578T
[55] = system: KM12
[56] = system: MCF7
[57] = system: MDA-MB-231
[58] = system: MDA-MB-435
[59] = system: MDA-N
[60] = system: NCI/ADR-RES
[61] = system: OVCAR-4
[62] = system: OVCAR-5
[63] = system: PC-3
[64] = system: RXF 393
[65] = system: T47D
[66] = system: UACC-257
[67] = system: XF498

SMILES: COC(=O)NN1C(=O)C(=P(c2ccccc2)(c2ccccc2)c2ccccc2)C(C(=O)OC)=C1C
- GI50 [1]: > 100 µM (inactive)
- GI50 [2]: > 100 µM (inactive)
- GI50 [3]: > 100 µM (inactive)
- GI50 [4]: > 100 µM (inactive)
- GI50 [5]: > 100 µM (inactive)
- GI50 [6]: > 100 µM (inactive)
- GI50 [7]: > 100 µM (inactive)
- GI50 [8]: > 100 µM (inactive)
- GI50 [9]: > 100000 nM
- GI50 [10]: 52.5 µM (inactive)
- GI50 [11]: > 100 µM (inactive)
- GI50 [12]: 12.6 µM (inactive)
- GI50 [13]: > 100 µM (inactive)
- GI50 [14]: > 100 µM (inactive)
- GI50 [15]: > 100 µM (inactive)
- GI50 [16]: > 100 µM (inactive)
- GI50 [17]: > 100 µM (inactive)
- GI50 [18]: > 100 µM (inactive)
- GI50 [19]: > 100 µM (inactive)
- GI50 [20]: > 100 µM (inactive)
- GI50 [21]: > 100 µM (inactive)
- GI50 [22]: > 100 µM (inactive)
- GI50 [23]: > 100 µM (inactive)
- GI50 [24]: > 100 µM (inactive)
- GI50 [25]: > 100 µM (inactive)
- GI50 [26]: > 100 µM (inactive)
- GI50 [27]: > 100 µM (inactive)
- GI50 [28]: > 100 µM (inactive)
- GI50 [29]: 60.5 µM (inactive)
- GI50 [30]: > 100 µM (inactive)
- GI50 [31]: > 100 µM (inactive)
- GI50 [32]: > 100 µM (inactive)
- GI50 [33]: > 100 µM (inactive)
- GI50 [34]: > 100 µM (inactive)
- GI50 [35]: > 100 µM (inactive)
- GI50 [36]: > 100 µM (inactive)
- GI50 [37]: > 100 µM (inactive)
- GI50 [38]: > 100 µM (inactive)
- GI50 [39]: > 100 µM (inactive)
- GI50 [40]: > 100 µM (inactive)
- GI50 [41]: > 100 µM (inactive)
- GI50 [42]: > 100 µM (inactive)
- GI50 [43]: > 100 µM (inactive)
- GI50 [44]: > 100 µM (inactive)
- GI50 [45]: > 100 µM (inactive)
- GI50 [46]: > 100 µM (inactive)

SMILES: C/C(=N\NC(=S)N1CCN(c2ccccn2)CC1)c1nccs1
- GI50 [47]: 305 nM (active)
- GI50 [1]: 1.88 µM (inactive)
- GI50 [48]: 908 nM (active)
- GI50 [2]: 0.355 µM (active)
- GI50 [49]: 2.02 µM (inactive)
- GI50 [3]: 2.42 µM (inactive)
- GI50 [4]: 0.01 µM (active)
- GI50 [5]: < 0.0248 µM (active)
- GI50 [6]: 0.01 µM (active)
- GI50 [7]: 0.351 µM (active)
- GI50 [50]: 290 nM (active)
- GI50 [8]: 0.12 µM (active)
- GI50 [51]: 675 nM (active)
- GI50 [52]: < 44.1 nM (active)
- GI50 [9]: 71 nM
- GI50 [10]: 0.01 µM (active)
- GI50 [11]: 2.92 µM (inactive)
- GI50 [53]: 1.19 µM (inactive)
- GI50 [12]: 2.26 µM (inactive)
- GI50 [13]: 0.335 µM (active)
- GI50 [54]: 2.8 µM (inactive)
- GI50 [14]: 0.228 µM (active)
- GI50 [15]: 0.01 µM (active)
- GI50 [16]: < 0.0294 µM (active)
- GI50 [55]: 485 nM (active)
- GI50 [17]: 0.405 µM (active)
- GI50 [18]: 0.01 µM (active)
- GI50 [19]: 0.16 µM (active)
- GI50 [20]: 0.574 µM (active)
- GI50 [56]: 6.65 nM (active)
- GI50 [57]: 22 nM (active)
- GI50 [58]: 521 nM (active)
- GI50 [59]: 431 nM (active)
- GI50 [21]: < 0.0225 µM (active)
- GI50 [22]: 3.82 µM (inactive)
- GI50 [23]: 0.955 µM (active)
- GI50 [24]: 0.438 µM (active)
- GI50 [25]: 0.104 µM (active)
- GI50 [60]: 33.9 nM (active)
- GI50 [61]: 1.03 µM (active)
- GI50 [62]: 867 nM (active)
- GI50 [28]: 0.258 µM (active)
- GI50 [63]: 54.8 nM (active)
- GI50 [29]: 0.01 µM (active)
- GI50 [64]: 3.72 µM (inactive)
- GI50 [30]: 1.05 µM (active)
- GI50 [31]: 0.794 µM (active)
- GI50 [32]: 0.822 µM (active)
- GI50 [33]: 0.524 µM (active)
- GI50 [34]: 0.792 µM (active)
- GI50 [35]: 1.83 µM (inactive)
- GI50 [36]: 0.219 µM (active)
- GI50 [37]: 1.61 µM (inactive)
- GI50 [38]: 1.2 µM (inactive)
- GI50 [39]: 1.58 µM (inactive)
- GI50 [40]: 2.82 µM (inactive)
- GI50 [41]: 6.76 µM (inactive)
- GI50 [42]: 0.279 µM (active)
- GI50 [65]: 39.1 nM (active)
- GI50 [43]: 1.91 µM (inactive)
- GI50 [44]: 0.405 µM (active)
- GI50 [66]: 214 nM (active)
- GI50 [45]: 0.122 µM (active)
- GI50 [46]: 0.516 µM (active)
- GI50 [67]: 13 µM (inactive)

Reference: ChEMBL document CHEMBL1201862, “PubChem BioAssay data set” (2004)
